Assay results as given in patent publication US9156840B2, “D2 antagonists, methods of synthesis and methods of use” (ALTOS THERAPEUTICS, LLC, priority 2010, dated 2015).

What follows are compounds tested against T1, human D2 receptor (Homo sapiens, UniProt P14416) (assay: D2 receptor radioligand binding assay (membranes of HEK-293 cells expressing human D2 receptor)). Conditions: not given.
T1 construct: expressed in transfected cells; cDNA from Origene clones TC308892 and SC123573
Protocol: Affinity for the dopamine D2 receptor was tested in vitro, and the following describes the construction of cell lines expressing human D2 receptor, as well as the binding assays themselves.
Establishment of Stable Cell Lines Expressing Either the Cloned Human D2S Receptor or the Cloned Human D2L Receptor.
The human D2 receptor exists in two isoforms: the short form (D2S) and the long form (D2L). The two isoforms are generated from the D2 gene by alternative splicing and the D2L isoform differs from the D2S isoform by the addition of 29 amino acids in the third intracellular loop of its protein structure.
To establish HEK-293 cell lines stably expressing either the human D2S or the human D2L, the human dopamine D2S receptor (Genebank Accession Number NM_016574) and human dopamine D2L receptor (Genebank Accession Number BC021195) were amplified by PCR from Origene cDNA clones TC308892 and SC123573 (respectively) using the following primers: 5-[…]-3 (SEQ ID NO: 1) sense and 5-[…]-3 (SEQ ID NO: 2) antisense. The resulting PCR products were respectively cloned into pENTR-D-TOPO (Invitrogen), sequenced and then transferred into the pCDNA3.2-DEST (Invitrogen) using the LR-clonasc gateway reaction (Invitrogen) and sequenced again to verify the genes sequence.
HEK293 cells were maintained in Eagles Minimum Essential Medium (MEM) supplemented with 0.292 g/L L-glutamine and 10% (v/v) fetal calf serum at 37° C. in a 5% CO2 humidified atmosphere. Cells were grown to 60-80% confluency in 10 cm dishes before transfection. Transfection of the D2S and D2L containing pcDNA3.2-DEST into HEK-293 cells were performed using Lipofectamine 2000 (Invitrogen). Transfected cells were seeded and diluted 2 days after transfection and maintained in culture medium supplemented with 500 μg/mL G418. The HEK-293 cell line expressing the huD2S (R2D2S) and the huD2L (R2D2L) were maintained in culture medium supplemented with 500 μg/mL G418.
D2 Receptor Binding Assays
HEK293 cells were in Eagles Minimum Essential Medium (MEM) supplemented with 10% FBS, 0.292 g/liter L-glutamine, 10^5 units/liter penicillin, 100 mg/liter streptomycin and […] Geneticin at 37° C. in a 5% CO2 humidified atmosphere. Cells were grown to 80-90% confluence and harvested with cell stripper (Cellgro #25-056-CI). Cells were then washed with PBS (2×). Cells were either pelleted and frozen at −80° C. or membranes were prepared immediately.
Cells from pellet were resuspended in homogenization buffer (15 mM Tris*HCl, 2 mM MgCl2*6H2O, 0.3 mM EDTA, 1 mM EGTA pH 7.4 @ 4° C.). Cells were then homogenized using a Polytron (PT 1200) homogenizer at setting 6 for 10 seconds. Crude membranes were pelleted at 39, 412 g for 15 min, at 4° C. (2×) in a Sorval RC6 plus centrifuge. Membranes were finally resuspended in resuspension buffer (50 mM Tris*HCl, 120 mM NaCl, 10 mM MgCl2*6H2O, 1 mM EDTA pH 7.4 @ 4° C.) and sonicated (Fisher Sonic Dismembrator) at setting 5 for 10 seconds.
The radioligand binding assays were conducted in microtiter plates (Costar #3961) with a final volume of 1.0 mL.
The membranes were thawed at room temperature, briefly homogenized using a sonicator, diluted in assay buffer and kept on wet ice until being added to the assay plate. Membranes were diluted to a final target tissue concentration of 10 μg protein per well. The specific binding should be greater than 80% with less than 10% total radioligand bound to minimize ligand depletion errors.
First compound of the invention (50 μL) or assay buffer (50 mM Tris*HCl, 120 mM NaCl, 5 mM MgCl2*6H2O, 1 mM EDTA, 5 mM KCl pH 7.4 @37° C. plus 0.025% BSA), buffer (700 μL) and then membrane (200 μL) were added to the deep well assay plate, which was then shaken for 10 minutes. Finally, radioligand (50 μL) was added.
The assay plates were incubated at 37° C. for 120 minutes.
The assay plate were filtered over 0.3% PEI pretreated glass fiber filtermats (GF/C) using a Packard Filtermate cell harvester. […]

T1 sequence (P14416 whole entry): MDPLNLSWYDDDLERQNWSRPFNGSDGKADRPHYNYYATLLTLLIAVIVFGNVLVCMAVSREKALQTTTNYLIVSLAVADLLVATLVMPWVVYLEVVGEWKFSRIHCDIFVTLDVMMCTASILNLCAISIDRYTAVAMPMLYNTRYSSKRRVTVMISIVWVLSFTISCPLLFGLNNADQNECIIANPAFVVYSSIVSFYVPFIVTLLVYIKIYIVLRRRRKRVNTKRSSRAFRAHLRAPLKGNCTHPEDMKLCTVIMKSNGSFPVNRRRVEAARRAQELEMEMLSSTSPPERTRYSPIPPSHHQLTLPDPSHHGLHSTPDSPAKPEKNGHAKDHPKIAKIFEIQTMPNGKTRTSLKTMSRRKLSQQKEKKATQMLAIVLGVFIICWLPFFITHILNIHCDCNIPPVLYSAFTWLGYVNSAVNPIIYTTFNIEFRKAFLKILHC

| Compound | IC50 [nM] |
| --- | --- |
| O=C(O[C@H]1CN2CCC1CC2)c1cccc(CN2CN(c3ccccc3)C3(CCN(CCCn4c(=O)[nH]c5ccccc54)CC3)C2=O)c1 [Compound 26, (R)-Quinuclidin-3-yl 3-((4-oxo-8-(3-(2-oxo-2,3-dihydro-1H-benzo[d]imidazol-1-yl)propyl)-1-phenyl-1,3,8-triazaspiro[4.5]decan-3-yl)methyl)benzoate] | < 10 |

Same assay, conditions: radioligand displacement, HEK293 membranes, 37° C. for 120 minutes; read-out: Affinity Score (IC50 values for D2 on a scale of 1 through 5)

| Compound | IC50 [nM] |
| --- | --- |
| O=C(O)c1cccc(CN2CN(c3ccccc3)C3(CCN(CCCn4c(=O)[nH]c5ccccc54)CC3)C2=O)c1 [Compound 11, 3-((4-Oxo-8-(3-(2-oxo-2,3-dihydro-1H-benzo[d]imidazol-1-yl)propyl)-1-phenyl-1,3,8-triazaspiro[4.5]decan-3-yl)methyl)benzoic acid] | < 10 |
| O=C(O)c1ccc(CN2CN(c3ccccc3)C3(CCN(CCCn4c(=O)[nH]c5ccccc54)CC3)C2=O)cc1 [Compound 17, 4-((4-Oxo-8-(3-(2-oxo-2,3-dihydro-1H-benzo[d]imidazol-1-yl)propyl)-1-phenyl-1,3,8-triazaspiro[4.5]decan-3-yl)methyl)benzoic acid] | < 10 |
| O=C(O)c1ccccc1CN1CN(c2ccccc2)C2(CCN(CCCn3c(=O)[nH]c4ccccc43)CC2)C1=O [Compound 19, 2-((4-Oxo-8-(3-(2-oxo-2,3-dihydro-1H-benzo[d]imidazol-1-yl)propyl)-1-phenyl-1,3,8-triazaspiro[4.5]decan-3-yl)methyl)benzoic acid] | < 10 |
| O=C(CCCCCN1CN(c2ccccc2)C2(CCN(CCCn3c(=O)[nH]c4ccccc43)CC2)C1=O)OCc1ccccc1 [Compound 21, Benzyl 6-(4-oxo-8-(3-(2-oxo-2,3-dihydro-1H-benzo[d]imidazol-1-yl)propyl)-1-phenyl-1,3,8-triazaspiro[4.5]decan-3-yl)hexanoate] | < 10 |
| O=C(O)CCCCCN1CN(c2ccccc2)C2(CCN(CCCn3c(=O)[nH]c4ccccc43)CC2)C1=O [Compound 22, 6-(4-Oxo-8-(3-(2-oxo-2,3-dihydro-1H-benzo[d]imidazol-1-yl)propyl)-1-phenyl-1,3,8-triazaspiro[4.5]decan-3-yl)hexanoic acid] | < 10 |
| O=C(OCCN1CCOCC1)c1cccc(CN2CN(c3ccccc3)C3(CCN(CCCn4c(=O)[nH]c5ccccc54)CC3)C2=O)c1 [Compound 25, 2-Morpholinoethyl 3-((4-oxo-8-(3-(2-oxo-2,3-dihydro-1H-benzo[d]imidazol-1-yl)propyl)-1-phenyl-1,3,8-triazaspiro[4.5]decan-3-yl)methyl)benzoate] | < 10 |
| CCN(CC)C(=O)COC(=O)c1cccc(CN2CN(c3ccccc3)C3(CCN(CCCn4c(=O)[nH]c5ccccc54)CC3)C2=O)c1 [Compound 30, 2-(Diethylamino)-2-oxoethyl 3-((4-oxo-8-(3-(2-oxo-2,3-dihydro-1H-benzo[d]imidazol-1-yl)propyl)-1-phenyl-1,3,8-triazaspiro[4.5]decan-3-yl)methyl)benzoate] | < 10 |
| COC(=O)[C@@H](c1ccccc1)N1CN(c2ccccc2)C2(CCN(CCCn3c(=O)[nH]c4ccccc43)CC2)C1=O [Compound 34, (R)-methyl 2-(4-oxo-8-(3-(2-oxo-2,3-dihydro-1H-benzo[d]imidazol-1-yl)propyl)-1-phenyl-1,3,8-triazaspiro[4.5]decan-3-yl)-2-phenylacetate] | < 10 |
| CN1CCN(C(=O)COC(=O)c2cccc(CN3CN(c4ccccc4)C4(CCN(CCCn5c(=O)[nH]c6ccccc65)CC4)C3=O)c2)CC1 [Compound 35, 2-(4-Methylpiperazin-1-yl)-2-oxoethyl 3-((4-oxo-8-(3-(2-oxo-2,3-dihydro-1H-benzo[d]imidazol-1-yl)propyl)-1-phenyl-1,3,8-triazaspiro[4.5]decan-3-yl)methyl)benzoate] | < 10 |
| O=C(O)[C@@H](c1ccccc1)N1CN(c2ccccc2)C2(CCN(CCCn3c(=O)[nH]c4ccccc43)CC2)C1=O [Compound 39, (R)-2-(4-oxo-8-(3-(2-oxo-2,3-dihydro-1H-benzo[d]imidazol-1-yl)propyl)-1-phenyl-1,3,8-triazaspiro[4.5]decan-3-yl)-2-phenylacetic acid] | < 10 |
